Results published in patent US20220162191A1, “SMALL MOLECULE MODULATORS OF IL-17” (LEO PHARMA A/S, priority 2019, published 2022).

molecular target: T1, human IL-17AA (Homo sapiens, UniProt Q16552); test: IL-8 release assay in human epithelial keratinocytes adult (HEKa); type: cell-based; conditions: 3 ng/ml human IL-17AA + 10 ng/ml human TNFalpha, 68-72 h, IL-8 by HTRF, read-out: Rel EC50 L-8 release assay
T1 construct: host or cells: HEK (human embryonic kidney) cells
T1 sequence (Q16552 24-155) 1: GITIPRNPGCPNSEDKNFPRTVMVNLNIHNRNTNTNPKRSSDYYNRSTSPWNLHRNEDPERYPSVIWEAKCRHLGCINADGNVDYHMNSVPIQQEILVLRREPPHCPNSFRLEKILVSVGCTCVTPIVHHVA
T1 sequence (Q16552 24-155) 2: T1 sequence (Q16552 24-155) 1
Outline: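 Adult human keratinocytes in Epilife with HKGS minus hydrocortisone, treated with compound then stimulated with final 3 ng/ml HEK-derived human IL-17AA plus 10 ng/ml TNF-alpha for 68–72 h at 37 °C; TNF-alpha alone defines 100% inhibition. Secreted IL-8 by HTRF; relative IC50 and Emax from four-parameter fits.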

Compound	EC50 [µM]
Cn1cncc1-c1ccc(NC(=O)C(Cc2cc(-c3ccnc(N4CC[C@H](CO)C4)c3)ccc2Cl)NC(=O)c2ccnn2C)cc1 (stereo partly drawn) [Example 185, N-[1-[[2-chloro-5-[2-[(3S)-3-(hydroxymethyl)pyrrolidin-1-yl]-4-pyridyl]phenyl]methyl]-2-[4-(3-methylimidazol-4-yl)anilino]-2-oxo-ethyl]-2-methyl-pyrazole-3-carboxamide]	0.1 to 1
Cc1n[nH]c(C)c1-c1ccc(NC(=O)[C@@H](NC(=O)c2ccnn2C)[C@@H]2CCc3ccc(-c4ccc5c(c4)CN(C)C5)cc32)cc1 [Example 10, N-[(1S)-2-[4-(3,5-dimethyl-1H-pyrazol-4-yl)anilino]-1-[(1R)-6-(2-methylisoindolin-5-yl)indan-1-yl]-2-oxo-ethyl]-2-methyl-pyrazole-3-carboxamide]	< 0.1
CC(C)n1cc(-c2ccc(Cl)c(C[C@H](NC(=O)C3CC3(C)C)C(=O)Nc3ccc(-c4nncn4C)cc3)c2)ccc1=O (stereo partly drawn) [Example 154, N-[(1S)-1-[[2-chloro-5-(1-isopropyl-6-oxo-3-pyridyl)phenyl]methyl]-2-[4-(4-methyl-1,2,4-triazol-3-yl)anilino]-2-oxo-ethyl]-2,2-dimethyl-cyclopropanecarboxamide]	> 1
Cc1n[nH]c(C)c1-c1ccc(NC(=O)[C@H](Cc2cc(-c3ccc(CN4C[C@@H]5C[C@H]4CN5)cc3)ccc2Cl)NC(=O)C2(F)CC2)cc1 [Example 229, N-[(1S)-1-[[2-chloro-5-[4-[[(1S,4S)-2,5-diazabicyclo[2.2.1]heptan-2-yl]methyl]phenyl]phenyl]methyl]-2-[4-(3,5-dimethyl-1H-pyrazol-4-yl)anilino]-2-oxo-ethyl]-1-fluoro-cyclopropanecarboxamide]	0.1 to 1
Cn1cncc1-c1ccc(NC(=O)C(Cc2cc(-c3ccnc(N4CCCCC4)c3)ccc2Cl)NC(=O)c2ccnn2C)cc1 (centres unmarked) [Example 160, N-[1-[[2-chloro-5-[2-(1-piperidyl)-4-pyridyl]phenyl]methyl]-2-[4-(3-methylimidazol-4-yl)anilino]-2-oxo-ethyl]-2-methyl-pyrazole-3-carboxamide]	0.1 to 1
CC(C)n1cc(-c2ccc(Cl)c(C[C@H](NC(=O)c3ccnn3C)C(=O)Nc3ccc(-c4cn[nH]c4)c(O)c3)c2)ccc1=O [Example 175, N-[(1S)-1-[[2-chloro-5-(1-isopropyl-6-oxo-3-pyridyl)phenyl]methyl]-2-[3-hydroxy-4-(1H-pyrazol-4-yl)anilino]-2-oxo-ethyl]-2-methyl-pyrazole-3-carboxamide]	< 0.1
CC(C)n1cc(-c2ccc(Cl)c(CC(NC(=O)c3ccnn3C)C(=O)Nc3ccc(-c4nn[nH]n4)cc3)c2)ccc1=O (centres unmarked) [Example 66, N-[1-[[2-chloro-5-(1-isopropyl-6-oxo-3-pyridyl)phenyl]methyl]-2-oxo-2-[4-(2H-tetrazol-5-yl)anilino]ethyl]-2-methyl-pyrazole-3-carboxamide]	> 1
Cc1n[nH]c(C)c1-c1ccc(NC(=O)[C@@H](NC(=O)c2ccnn2C)[C@@H]2CCc3ccc(-c4ccnc(C(C)C)c4)cc32)cc1 [Example 14, N-[(1S)-2-[4-(3,5-dimethyl-1H-pyrazol-4-yl)anilino]-1-[(1R)-6-(2-isopropyl-4-pyridyl)indan-1-yl]-2-oxo-ethyl]-2-methyl-pyrazole-3-carboxamide]	< 0.1
CN(C)Cc1cc(-c2ccc(Cl)c(CC(NC(=O)c3ccnn3C)C(=O)Nc3ccc(-c4nncn4C)cc3)c2)ccc1O (centres unmarked) [Example 139, N-[1-[[2-chloro-5-[3-(dimethylaminomethyl)-4-hydroxy-phenyl]phenyl]methyl]-2-[4-(4-methyl-1,2,4-triazol-3-yl)anilino]-2-oxo-ethyl]-2-methyl-pyrazole-3-carboxamide]	> 1
Cn1cncc1-c1ccc(NC(=O)[C@H](Cc2cc(-c3cccc([C@@H]4CNCCO4)c3)ccc2Cl)NC(=O)c2ccnn2C)cc1 [Example 221, N-[(1S)-1-[[2-chloro-5-[3-[(2R)-morpholin-2-yl]phenyl]phenyl]methyl]-2-[4-(3-methylimidazol-4-yl)anilino]-2-oxo-ethyl]-2-methyl-pyrazole-3-carboxamide]	0.1 to 1
Cc1n[nH]c(C)c1-c1ccc(NC(=O)C(Cc2cc(-c3ccc(=O)n(C(C)C)c3)ccc2Cl)NC(=O)c2ccnn2C)cc1 (centres unmarked) [Example 94, N-[1-[[2-chloro-5-(1-isopropyl-6-oxo-3-pyridyl)phenyl]methyl]-2-[4-(3,5-dimethyl-1H-pyrazol-4-yl)anilino]-2-oxo-ethyl]-2-methyl-pyrazole-3-carboxamide]	< 0.1
CCOc1cccc(-c2ccc(Cl)c(CC(NC(=O)c3ccnn3C)C(=O)Nc3ccc(-c4nncn4C)cc3)c2)c1 (centres unmarked) [Example 110, N-[1-[[2-chloro-5-(3-ethoxyphenyl)phenyl]methyl]-2-[4-(4-methyl-1,2,4-triazol-3-yl)anilino]-2-oxo-ethyl]-2-methyl-pyrazole-3-carboxamide]	0.1 to 1
CC(C)c1cc(-c2ccc(Cl)c(CC(NC(=O)c3ccnn3C)C(=O)Nc3ccc(-c4nncn4C)cc3)c2)ccc1C#N (centres unmarked) [Example 202, N-[1-[[2-chloro-5-(4-cyano-3-isopropyl-phenyl)phenyl]methyl]-2-[4-(4-methyl-1,2,4-triazol-3-yl)anilino]-2-oxo-ethyl]-2-methyl-pyrazole-3-carboxamide]	0.1 to 1

Now from value to molecule:

EC50 [µM]	Compound
< 0.1	Cc1n[nH]cc1-c1ccc(NC(=O)C(NC(=O)c2ccnn2C)C(c2ccccc2)c2cccc(-c3ccc(=O)n(C(C)C)c3)c2)cc1 (single isomer, unassigned; diastereomer 1) [Example 235, N-[1-[[3-(1-isopropyl-6-oxo-3-pyridyl)phenyl]-phenyl-methyl]-2-[4-(3-methyl-1H-pyrazol-4-yl)anilino]-2-oxo-ethyl]-2-methyl-pyrazole-3-carboxamide (Diastereomer 1)]
> 1	CC(C)n1cc(-c2ccc(Cl)c(C[C@H](NC(=O)C(C)(F)F)C(=O)Nc3ccc(-c4nncn4C)cc3)c2)ccc1=O [Example 283, N-[(1S)-1-[[2-chloro-5-(1-isopropyl-6-oxo-3-pyridyl)phenyl]methyl]-2-[4-(4-methyl-1,2,4-triazol-3-yl)anilino]-2-oxo-ethyl]-2,2-difluoro-propanamide]
> 1	Cc1nocc1C(=O)NC(Cc1cc(-c2ccnc(C(=O)N(C)C3CC3)c2)ccc1Cl)C(=O)Nc1ccc(-c2nncn2C)cc1 (centres unmarked) [Example 306, N-[1-[[2-chloro-5-[2-[cyclopropyl(methyl)carbamoyl]-4-pyridyl]phenyl]methyl]-2-[4-(4-methyl-1,2,4-triazol-3-yl)anilino]-2-oxo-ethyl]-3-methyl-isoxazole-4-carboxamide]
> 1	Cc1cc(-c2ccc(Cl)c(CC(NC(=O)c3ccnn3C)C(=O)Nc3ccc(-c4nncn4C)cc3)c2)ccc1C#N (centres unmarked) [Example 309, N-[1-[[2-chloro-5-(4-cyano-3-methyl-phenyl)phenyl]methyl]-2-[4-(4-methyl-1,2,4-triazol-3-yl)anilino]-2-oxo-ethyl]-2-methyl-pyrazole-3-carboxamide]
> 1	Cc1n[nH]c(C)c1-c1ccc(NC(=O)[C@H](Cc2cc(N3CCOCC3)ccc2Cl)NC(=O)c2ccnn2C)cc1 [Example 311, N-[(1S)-1-[(2-chloro-5-morpholino-phenyl)methyl]-2-[4-(3,5-dimethyl-1H-pyrazol-4-yl)anilino]-2-oxo-ethyl]-2-methyl-pyrazole-3-carboxamide]
< 0.1	Cc1n[nH]c(C)c1-c1ccc(NC(=O)[C@@H](NC(=O)C2(F)CC2)[C@@H]2CCc3ccc(-c4cncc(N5C[C@@H]6C[C@H]5CO6)c4)cc32)cc1 [Example 377, N-[(1S)-2-[4-(3,5-dimethyl-1H-pyrazol-4-yl)anilino]-1-[(1R)-6-[5-[(1S,4S)-2-oxa-5-azabicyclo[2.2.1]heptan-5-yl]-3-pyridyl]indan-1-yl]-2-oxo-ethyl]-1-fluoro-cyclopropanecarboxamide]
> 1	Cc1cnn(C)c1-c1ccc(NC(=O)[C@H](Cc2cc(-c3ccc(=O)n(C(C)C)c3)ccc2Cl)NC(=O)c2cocn2)cc1 [Example 333, N-[(1S)-1-[[2-chloro-5-(1-isopropyl-6-oxo-3-pyridyl)phenyl]methyl]-2-[4-(2,4-dimethylpyrazol-3-yl)anilino]-2-oxo-ethyl]oxazole-4-carboxamide]
> 1	CC(C)n1cc(-c2cccc(C(c3ccccc3)C(NC(=O)c3ccnn3C)C(=O)Nc3ccc(-c4cncn4C)cc3)c2)ccc1=O (single isomer, unassigned; diastereomer 2) [Example 232, N-[1-[[3-(1-isopropyl-6-oxo-3-pyridyl)phenyl]-phenyl-methyl]-2-[4-(3-methylimidazol-4-yl)anilino]-2-oxo-ethyl]-2-methyl-pyrazole-3-carboxamide (Diastereomer 2)]
0.1 to 1	Cc1n[nH]cc1-c1ccc(NC(=O)C(NC(=O)c2ccnn2C)C(c2ccccc2)c2cccc(-c3ccc(=O)n(C(C)C)c3)c2)cc1 (single isomer, unassigned; diastereomer 4) [Example 238, N-[1-[[3-(1-isopropyl-6-oxo-3-pyridyl)phenyl]-phenyl-methyl]-2-[4-(3-methyl-1H-pyrazol-4-yl)anilino]-2-oxo-ethyl]-2-methyl-pyrazole-3-carboxamide (Diastereomer 4)]
> 1	Cc1n[nH]cc1-c1ccc(NC(=O)C(NC(=O)c2ccnn2C)C(c2ccccc2)c2cccc(-c3ccc(=O)n(C(C)C)c3)c2)cc1 (single isomer, unassigned; diastereomer 3) [Example 237, N-[1-[[3-(1-isopropyl-6-oxo-3-pyridyl)phenyl]-phenyl-methyl]-2-[4-(3-methyl-1H-pyrazol-4-yl)anilino]-2-oxo-ethyl]-2-methyl-pyrazole-3-carboxamide (Diastereomer 3)]
